Entries after “also recorded” stand apart in the source; their conditions may differ. Read-outs that look alike come from different tables or passages of the source. Blank lines part the entries; values can stand above or below the compound they belong to.
Experiments:
[1] = system: advanced clear-cell renal cell carcinoma; conditions: nivolumab 3 mg/kg IV every two weeks or everolimus 10 mg orally daily; P<0.001; cited from earlier work
[2] = system: intra-tumoral CD8+ activated T-cells and FoxP3+ Tregs; experiment: Immunohistochemical analysis of intra-tumor T-cell infiltrates in a melanoma patient before and after X4P-001; format: in vivo, human
Protocol: Intra-tumoral tissue samples were obtained from a patient with melanoma prior to treatment (Day 1), and after three (3) weeks of treatment with CXCR4 inhibitor […]-001 (200 mg BID, oral) (Week 4). Samples were stained for CD8+, indicative of activated T-cells, and FoxP3+, indicative of immunosuppressive regulator T-cells (Tregs). The tables below indicate the total counts and density per square millimeter (mm^2) of CD8+ activated T-cells and FoxP3+ Tregs, as well as the ratio of CD8+ activated T-cells:FoxP3+ Tregs per mm^2 at day 1 and after 3 weeks of treatment.

[3] = Phase 1 and 2a trials, oral; cited from earlier work
[4] = system: murine models of melanoma, renal cell carcinoma, and ovarian cancer; conditions: including decreased metastasis and increased overall survival; cited from earlier work
in vivo = experiment: in vivo
Protocol: In certain embodiments, the dosage composition may be provided twice a day in divided dosage, approximately 12 hours apart. In other embodiments, the dosage composition may be provided once daily. […] Dosage for oral administration may be from about 100 mg to about 1200 mg once or twice per day.

[5] = Solubility of X4P-001 as a function of pH; format: physicochemical
[6] = system: tumor infiltrating lymphocytes and MDSC in MC38 tumors; experiment: Flow cytometry of Day 8 tumor samples, MC38 model (Groups 5-8); format: in vivo, mouse
Description: On Day 8, tumor samples from Groups 5-8 are obtained and divided into three parts. The first part is process to single cells by flow cytometry; second part is preserved by snap freeze; and the third part is preserved as formalin-fixed, paraffin-embedded (FFPE) blocks for IHC analysis of biomarkers.
Samples subjected to flow cytometry are sorted into the following cell types:

[7] = subcutaneous injection; cited from earlier work

Compound: CO[C@H]1C[C@@H]2CC[C@@H](C)[C@@](O)(O2)C(=O)C(=O)N2CCCC[C@H]2C(=O)O[C@H]([C@H](C)C[C@@H]2CC[C@@H](OCCO)[C@H](OC)C2)CC(=O)[C@H](C)/C=C(\C)[C@@H](O)[C@@H](OC)C(=O)[C@H](C)C[C@H](C)/C=C/C=C/C=C/1C [everolimus]
objective response rate [1]: 5%

Compound: nivolumab: fully human IgG4 monoclonal antibody binding the PD-1 receptor
objective response rate [1]: 25%

terminal half-life (in vivo): approximately 14.5 hrs
half-life (in vivo; terminal half-life): 12 to 24 h
solubility ([5]; aqueous buffer, pH range 3.0 to 8.0 (freely soluble)): > 100 mg/mL
Solubility in water ([5]; water): only slightly soluble
Compound: NCCCCN(Cc1nc2ccccc2[nH]1)[C@H]1CCCc2cccnc21 [X4P-001]
Total FoxP3+/mm^2 ([2]; Week 4, after 3 weeks of 200 mg BID oral, Day 1 before treatment 24.5868158): 25.2 /mm^2
Total CD8+/mm^2 ([2]; Week 4, after 3 weeks of 200 mg BID oral, Day 1 before treatment 56.87565442): 121.4 /mm^2
Total FoxP3+ ([2]; Week 4, after 3 weeks of 200 mg BID oral, Day 1 before treatment 313): 337
Total CD8+ ([2]; Week 4, after 3 weeks of 200 mg BID oral, Day 1 before treatment 720): 1685
intra-tumoral CD8+ T-cell counts ([2]; Week 4 versus Day 1, 200 mg BID oral, FIG. 3): marked increases in CD8+ T-cells; also recorded: marked increase
pharmacodynamic activity: changes in circulating white blood cells (WBCs) [3]: dose- and concentration-related changes in circulating white blood cells
volume of distribution (VL) [3]: high volume of distribution
anti-tumor activity [4]: significant anti-tumor activity
Treg, Percent of CD45^+ Population (Mean ± SEM) ([6]; control 0.5 ± 0.08): 0.49 ± 0.14%
CD4^+, Percent of CD45^+ Population (Mean ± SEM) ([6]; control 1.21 ± 0.29): 1.3 ± 0.51%
CD8^+, Percent of CD45^+ Population (Mean ± SEM) ([6]; control 3.91 ± 0.69): 6.11 ± 0.66%
CD8^+/Treg ([6]; control 7.82): 12.47
MDSC, Percent of CD45^+ Population (Mean ± SEM) ([6]; control 28.97 ± 3.6): 16.2 ± 0.67%
effect on CD8^+ T cells ([6]; versus control): increasing CD8^+ T cells
effect on MDSCs ([6]; versus control): significant effect on reducing MDSCs

Compound: c1cc(CN2CCCNCCNCCCNCC2)ccc1CN1CCCNCCNCCCNCC1 [Plerixafor, reference compound]
half-life [7]: very short half-life
anti-tumor activity [4]: significant anti-tumor activity

Source: patent US20200138804A1, “METHODS FOR TREATING CANCER” (X4 Pharmaceuticals, Inc., priority 2017, published 2020)
